In brackets after ≈: the same amount, converted by molar mass.
conditions: buffer; pH 7.4; 200.0 µM

| SMILES | solubility kinetic [mg/mL] |
| --- | --- |
| CC(=O)NC(Cc1c[nH]c2ccccc12)C(=O)NCc1ccco1 (stereo unspecified) | > 0.0488 |
| COc1ccc(NC(=O)NCCc2ccc(Cl)cc2)cc1OC | < 0.0004 |
| CSc1ncc(Cl)c(C(=O)Nc2cc(C)ccc2C)n1 | < 0.0002 |
| O=C(C[n+]1cc[nH]c1)c1ccc(Cl)cc1.[Cl-] | > 0.0386 |
| Cc1cc2ncn(S(=O)(=O)c3ccc(F)cc3)c2cc1C | 0.0318 (≈ 104 µM) |
| CC(=O)Nc1ccc(NC(=O)COC(=O)C2CCCCC2)cc1 | > 0.0478 |
| NC(=O)c1cc(S(=O)(=O)Nc2cccc(Cl)c2)cs1 | > 0.0475 |
| COC(=O)c1cc(CNC(=O)CC(C)c2ccccc2)ccc1OC (stereo unspecified) | > 0.0512 |
| O=C(CSc1nc2ccccc2o1)NCC1CCCO1 (stereo unspecified) | > 0.0439 |
| O=C(NC1CC1)c1ccc(CSCc2ccccc2Cl)o1 | > 0.0483 |
| CN(CC(O)Cn1cnc2c1c(=O)n(C)c(=O)n2C)c1ccccc1 (stereo unspecified) | > 0.0515 |
| Cc1nc(/N=C(\N)NC(=O)NC2CCCCC2)nc2ccccc12 | 0.0127 (≈ 38.9 µM) |
| COc1ccc(S(=O)(=O)Nc2cccc(S(=O)(=O)N3CCCCC3)c2)cc1 | 0.044 (≈ 107 µM) |
| CCN(c1ccccc1)c1nc(C#N)nc(N(CC)c2ccccc2)n1 | 0.0009 (≈ 2.61 µM) |
| Cc1ccc2c(CN3CCOCC3)cc(=O)oc2c1 | > 0.0389 |
| CN(C)c1cccc(C(=O)N(Cc2ccccc2)Cc2ccccc2)c1 | 0.0042 (≈ 12.2 µM) |
| COc1ccccc1N1CC(C(=O)NC2CCCCCC2)CC1=O (stereo unspecified) | > 0.0496 |
| COc1ccc(C23NCCN2C(=O)c2ccccc23)cc1 (stereo unspecified) | > 0.042 |
| CN1C2CCC1CC(NC(=O)c1cccc(C(F)(F)F)c1)C2 (stereo unspecified) | > 0.0469 |
| Cc1[nH]c2c(Cl)cccc2c(=O)c1CN1CCCCCC1 | > 0.0457 |
| Cc1cc(C)c(-c2c(O)c3ccccc3n(C)c2=O)c(C)c1 | > 0.044 |

| SMILES | solubility kinetic [mg/mL] |
| --- | --- |
| O=C(Nc1ccccc1N1CCCC1)c1ccc([N+](=O)[O-])o1 | 0.0449 (≈ 149 µM) |
| Cc1cccc(C)c1NC(=O)CNCC(=O)N(C)C | > 0.0395 |
| C=CCNC(=O)c1ccccc1NC(=O)C1CC(=O)N(C(C)C)C1 (stereo unspecified) | > 0.0494 |
| CCCn1c(C(O)c2ccc(C)cc2)nc2ccccc21 (stereo unspecified) | 0.0159 (≈ 56.7 µM) |
| O=C(NCc1ccccc1)c1ccc(=O)oc1 | > 0.0344 |
| Cc1cnc([N+](=O)[O-])n1CCOC(=O)NC(=O)c1ccc(F)cc1 | > 0.0504 |
| OCCC1CN(Cc2nc3ccccc3[nH]2)CCN1C1CCCC1 (stereo unspecified) | > 0.0493 |
| COc1ccccc1NC(=O)c1coc(=O)c(Br)c1 | 0.0054 (≈ 16.7 µM) |
| S=C(NCc1cccnc1)NCc1cccnc1 | 0.0374 (≈ 145 µM) |
| Cn1c(S(=O)(=O)Cc2ccc(Cl)cc2)nc2ccccc21 | 0.0087 (≈ 27.1 µM) |
| Cc1cc(/C=C2/NC(=O)NC2=O)c(C)n1-c1ccc(C#N)cc1 | 0.0084 (≈ 27.4 µM) |
| CCCc1cc(C(=O)Nc2cc(C)ccc2O)no1 | 0.0012 (≈ 4.61 µM) |
| Cc1ccc(S(=O)(=O)NCc2ccco2)cc1C(N)=O | > 0.0441 |
| Cc1cc(-c2onc(C)c2C(=O)Nc2ccc(C(F)(F)F)cc2)no1 | < 0.0003 |
| CNC(=O)c1cc(C(=O)c2ccc(Cl)cc2)c(Br)[nH]1 | 0.0017 (≈ 4.98 µM) |
| Cc1cc(C)[n+](Cc2ccccc2)cc1C(N)=O.[Cl-] | > 0.0415 |
| O=C(NCCCNC(=O)c1cnccn1)c1ccc(Cl)cc1 | > 0.0478 |
| Cl.Clc1ccc(NCc2ccsc2)cc1 | 0.0027 |
| COc1cccc(NC(=S)N(CCN(C)C)C(C)c2cccnc2)c1 (stereo unspecified) | > 0.0538 |
| CC(OC(=O)c1ccccc1Oc1ccccc1)C(=O)NC1CC1 (stereo unspecified) | > 0.0488 |
| Cc1cccc(-n2cnc3sc(C)c(C)c3c2=O)c1 | 0.0025 (≈ 9.25 µM) |

| SMILES | solubility kinetic [mg/mL] |
| --- | --- |
| CCOC(=O)C1=C(COC(=O)c2cccnc2SC)NC(=O)NC1C (stereo unspecified) | > 0.0548 |
| CC(C)c1ccccc1NC(=O)CC1(CC(=O)O)CCCC1 | > 0.0455 |
| CCC(=O)c1c[nH]c(C(=O)N2CCOCC2)c1 | 0.0337 (≈ 143 µM) |
| O=Cc1ccc(OCCOc2ccc([N+](=O)[O-])cc2)cc1 | < 0.0006 |
| CSc1ccccc1NC(=O)Nc1cccc(Cl)c1C | 0.0005 (≈ 1.63 µM) |
| CCCc1c(C)[nH]c2nc3ccccc3n2c1=O | 0.0036 (≈ 14.9 µM) |
| Cc1cc(C)c2c(=O)[nH]c(SCC(=O)N3CCOCC3)nc2n1 | > 0.0502 |
| Cc1ccc(-c2cc(C(=O)O)c3ccccc3n2)s1 | > 0.0404 |
| CC(C)CC(=O)N1CCN(Cc2ccc(Cl)cc2)CC1 | 0.0284 (≈ 96.3 µM) |
| Cc1ccc(C(=O)Nc2ccc3c(c2)C(=O)N(CC2CCCO2)C3=O)cc1 (stereo unspecified) | 0.001 (≈ 2.74 µM) |
| NC(CO)(CO)COCc1ccccc1 | > 0.0317 |
| O=C1NC(=O)/C(=C/c2cccc3ccccc23)S1 | > 0.0383 |
| Cl.FC(F)(F)c1cccc(C2NCc3ccccc3-n3cccc32)c1 (stereo unspecified) | 0.0039 |
| Nc1nonc1OCCCCOc1nonc1N | 0.0211 (≈ 82.4 µM) |
| Cc1ccc(C)c(OCC(=O)Nc2ccccc2C(=O)NC2CC2)c1 | 0.0009 (≈ 2.66 µM) |
| Cc1ccc(NC(=O)CN(C)C(=O)COC(=O)c2ccc(NC(=O)CC#N)cc2)cc1 | 0.036 (≈ 85.2 µM) |
| CCOC(=O)c1cc(C#N)c(Nc2ccccc2OC)nc1C(F)(F)F | < 0.0003 |
| CC(C)CCOc1cccc(OCC(=O)Nc2ccncc2)c1 | 0.0277 (≈ 88.1 µM) |
| CCN1/C(=C2\OC(=S)N(C)C2=O)C=Cc2ccccc21 | 0.0003 (≈ 1.05 µM) |

— PubChem BioAssay AID1996
